# From ChEMBL document CHEMBL2311281, “Novel berberine triazoles: synthesis, antimicrobial evaluation and competitive interactions with metal ions to human serum albumin” (Bioorg Med Chem Lett, 2013)
# Columns and labels:
# [1] = system: Proteus vulgaris; assay: Antibacterial activity against Proteus vulgaris by two fold serial dilution method; format: functional
# [2] = system: Pseudomonas aeruginosa; assay: Antibacterial activity against Pseudomonas aeruginosa by two fold serial dilution method; format: functional
# [3] = system: Shigella dysenteriae; assay: Antibacterial activity against Shigella dysenteriae by two fold serial dilution method; format: functional
# [4] = system: Escherichia coli; assay: Antibacterial activity against Escherichia coli DH52 by two fold serial dilution method; format: functional
# [5] = system: Bacillus subtilis; assay: Antibacterial activity against Bacillus subtilis by two fold serial dilution method; format: functional
# [6] = system: Micrococcus luteus; assay: Antibacterial activity against Micrococcus luteus ATCC 4698 by two fold serial dilution method; format: functional
# [7] = system: Staphylococcus aureus; assay: Antibacterial activity against Staphylococcus aureus ATCC 25923 by two fold serial dilution method; format: functional
# [8] = system: Staphylococcus aureus; assay: Antibacterial activity against methicillin-resistant Staphylococcus aureus N315 by two fold serial dilution method; format: functional
# [9] = system: Staphylococcus aureus; assay: Potency index, ratio of MIC for berberine to MIC compound against methicillin-resistant Staphylococcus aureus N315 by two fold serial dilution method; format: functional
# [10] = system: Staphylococcus aureus; assay: Potency index, ratio of MIC for chloromycin to MIC compound against methicillin-resistant Staphylococcus aureus N315 by two fold serial dilution method; format: functional
# [11] = target: T1, Albumin (Homo sapiens, UniProt P02768); assay: Ratio of binding affinity to HSA in presence of Fe3+ ions to binding affinity to HSA in absence of metal ions; format: ADME; conditions: isolated protein
# T1 sequence (P02768 whole entry): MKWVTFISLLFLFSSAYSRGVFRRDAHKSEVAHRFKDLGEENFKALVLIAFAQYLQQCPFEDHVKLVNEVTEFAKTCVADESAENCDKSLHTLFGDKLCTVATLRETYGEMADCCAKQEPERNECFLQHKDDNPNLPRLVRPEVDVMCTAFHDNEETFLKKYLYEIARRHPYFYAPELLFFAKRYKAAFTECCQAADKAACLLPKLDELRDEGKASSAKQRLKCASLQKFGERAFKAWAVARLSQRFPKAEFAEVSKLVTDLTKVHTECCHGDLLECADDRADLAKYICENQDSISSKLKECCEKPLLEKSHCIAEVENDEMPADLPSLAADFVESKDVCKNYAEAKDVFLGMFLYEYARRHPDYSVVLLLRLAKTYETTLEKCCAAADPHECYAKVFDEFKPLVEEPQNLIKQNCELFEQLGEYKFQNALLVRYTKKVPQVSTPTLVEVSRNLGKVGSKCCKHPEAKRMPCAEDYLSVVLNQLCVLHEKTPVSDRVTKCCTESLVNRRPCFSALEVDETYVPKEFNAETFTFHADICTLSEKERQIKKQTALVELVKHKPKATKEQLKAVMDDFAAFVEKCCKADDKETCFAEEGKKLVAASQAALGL
# [12] = target: T1, Albumin; assay: Ratio of binding affinity to HSA in presence of Mg2+ ions to binding affinity to HSA in absence of metal ions; format: ADME; conditions: isolated protein
# [13] = target: T1, Albumin; assay: Ratio of binding affinity to HSA in presence of Zn2+ ions to binding affinity to HSA in absence of metal ions; format: ADME; conditions: isolated protein
# [14] = target: T1, Albumin; assay: Ratio of binding affinity to HSA in presence of Pb2+ ions to binding affinity to HSA in absence of metal ions; format: ADME; conditions: isolated protein
# [15] = target: T1, Albumin; assay: Ratio of binding affinity to HSA in presence of Ni2+ ions to binding affinity to HSA in absence of metal ions; format: ADME; conditions: isolated protein
# [16] = target: T1, Albumin; assay: Ratio of binding affinity to HSA in presence of K+ ions to binding affinity to HSA in absence of metal ions; format: ADME; conditions: isolated protein
# [17] = target: T1, Albumin; assay: Ratio of binding affinity to HSA in presence of La3+ ions to binding affinity to HSA in absence of metal ions; format: ADME; conditions: isolated protein
# [18] = target: T1, Albumin; assay: Ratio of binding affinity to HSA in presence of Cu2+ ions to binding affinity to HSA in absence of metal ions; format: ADME; conditions: isolated protein
# [19] = target: T1, Albumin; assay: Ratio of binding affinity to HSA in presence of Ce3+ ions to binding affinity to HSA in absence of metal ions; format: ADME; conditions: isolated protein
# [20] = target: T1, Albumin; assay: Ratio of binding affinity to HSA in presence of Ca2+ ions to binding affinity to HSA in absence of metal ions; format: ADME; conditions: isolated protein
Structure (SMILES),MIC [1] [µg/mL],MIC [2] [µg/mL],MIC [3] [µg/mL],MIC [4] [µg/mL],MIC [5] [µg/mL],MIC [6] [µg/mL],MIC [7] [µg/mL],MIC [8] [µg/mL],Ratio [9],Ratio [10],Ratio [11],Ratio [12],Ratio [13],Ratio [14],Ratio [15],Ratio [16],Ratio [17],Ratio [18],Ratio [19],Ratio [20]
COc1ccc2cc3[n+](cc2c1OCCN(CCn1cncn1)Cc1ccc(Cl)cc1)CCc1cc2c(cc1-3)OCO2.[Cl-],32,16,8,16,8,16,16,16,,,,,,,,,,,,
COc1ccc2cc3[n+](cc2c1OCCN(CCn1cncn1)Cc1cccc(Cl)c1)CCc1cc2c(cc1-3)OCO2.[Cl-],32,32,32,8,16,32,8,32,,,,,,,,,,,,
COc1ccc2cc3[n+](cc2c1OCCN(CCn1cncn1)Cc1ccccc1Cl)CCc1cc2c(cc1-3)OCO2.[Cl-],16,32,32,8,8,32,8,16,,,,,,,,,,,,
COc1ccc2cc3[n+](cc2c1OCCN(CCn1cncn1)Cc1ccc(Cl)c(Cl)c1)CCc1cc2c(cc1-3)OCO2.[Cl-],8,16,16,8,8,16,8,16,,,,,,,,,,,,
COc1ccc2cc3[n+](cc2c1OCCN(CCn1cncn1)Cc1ccc(Cl)cc1Cl)CCc1cc2c(cc1-3)OCO2.[Cl-],8,16,8,4,8,16,8,8,16,2,,,,,,,,,,
COc1ccc2cc3[n+](cc2c1OCCN(CCn1cncn1)Cc1cccc(F)c1)CCc1cc2c(cc1-3)OCO2.[Cl-],4,8,4,8,8,16,8,8,16,2,,,,,,,,,,
COc1ccc2cc3[n+](cc2c1OCCN(CCn1cncn1)Cc1ccccc1F)CCc1cc2c(cc1-3)OCO2.[Cl-],4,8,4,4,8,8,4,8,16,2,,,,,,,,,,
Clc1ccc(CN(CCBr)CCn2cncn2)cc1,512,256,256,128,256,512,128,256,,,,,,,,,,,,
COc1ccc2cc3[n+](cc2c1OCCN(CCn1cncn1)Cc1ccc(F)cc1F)CCc1cc2c(cc1-3)OCO2.[Cl-],2,8,4,4,8,8,4,8,16,2,1.116,1.064,0.871,0.963,0.839,0.943,0.883,0.972,0.998,0.956
Clc1cccc(CN(CCBr)CCn2cncn2)c1,> 512,256,256,128,256,64,128,256,,,,,,,,,,,,
Clc1ccc(CN(CCBr)CCn2cncn2)c(Cl)c1,128,128,128,32,256,32,64,256,,,,,,,,,,,,
Clc1ccc(CN(CCBr)CCn2cncn2)cc1Cl,256,128,128,32,256,32,64,256,,,,,,,,,,,,
Clc1ccccc1CN(CCBr)CCn1cncn1,512,128,256,64,256,64,128,256,,,,,,,,,,,,
Fc1cccc(CN(CCBr)CCn2cncn2)c1,256,128,64,64,256,64,64,128,,,,,,,,,,,,
Fc1ccc(CN(CCBr)CCn2cncn2)c(F)c1,128,128,64,32,256,32,64,128,,,,,,,,,,,,
Fc1ccccc1CN(CCBr)CCn1cncn1,256,128,64,32,256,64,64,128,,,,,,,,,,,,
COc1ccc2cc3[n+](cc2c1OC)CCc1cc2c(cc1-3)OCO2 [BERBERINE],128,256,256,> 512,> 512,> 512,512,128,,,,,,,,,,,,
O=C(N[C@H](CO)[C@H](O)c1ccc([N+](=O)[O-])cc1)C(Cl)Cl [CHLORAMPHENICOL],32,32,32,32,32,8,16,16,,,,,,,,,,,,
CCn1cc(C(=O)O)c(=O)c2cc(F)c(N3CCNCC3)cc21 [NORFLOXACIN],8,16,4,16,1,2,0.5,8,,,,,,,,,,,,
